Test results published in patent US20240408167A1, “COMPOSITION FOR TREATING OCULAR DISEASES CONTAINING PEPTIDE” (Encuragen Inc., priority 2023, published 2024).

What was measured:
CD4+IFN-γ+T cell = CD4+IFN-γ+T cell density by flow cytometry, EDE mouse model; format: in vivo
Method: The cornea, conjunctiva, and each tissue required for analysis were excised with scissors, incised, and shaken with 0.5 mg/mL collagenase type D at 37° C. for 1 hour. After pulverizing the tissue, the resulting mixture was passed through a cell strainer, centrifuged, and resuspended in phosphate-buffered saline containing 1% bovine serum albumin.
In DED, corneal barrier destruction and epithelial cell loss are accompanied by bone marrow and T cell infiltration. Activated T lymphocytes are the primary producers of Th-1 cytokines and interferon (IFN)-γ, which promote cell death at the ocular surface. To evaluate the anti-inflammatory effect of (PEG)-BHD1028 in the EDE mouse model, immune cells that play the role of inflammatory cell surface markers were quantified by flow cytometry with one animal per group.

rabbit DED model [1] = experiment: Schirmer tear test (STT), rabbit DED model; format: in vivo
Method: (§1) The rabbit DED model was induced by locally administrating 0.1% benzalkoniumchloride (BAC) drops (Sigma, St. Louis, MO, USA) twice a day (8 a.m. and 4 p.m.). Before the BAC treatment, the control group (baseline, naive) underwent standard dry eye clinical tests such as the Schirmer tear test (STT), TBUT, and corneal staining score (CSS) test. After the BAC treatment, the induction of dry eye syndrome was confirmed, and the test substance was administered for 10 days while maintaining the induction of dry eye syndrome. […] The test substance was locally applied bis in die (BID) to both eyes.
The tear secretion was measured for 20 seconds by contacting a cotton thread containing phenol red (Zone-Quick™; Oasis Medical, Inc., Glendora, CA, USA) to the conjunctival sac on the lateral canthus of the mouse eye. After measuring the length using a Nikon SMZ1500 microscope, the length substituted to the prescribed formula, and the value was converted to volume. The tear production of the rabbits was measured by a modified Schirmer tear test using Whatman 41 filter paper strips (Tianjin Jingming New Technology Development Co., Ltd., Tianjin, China) on Day 0, Day 5, and Day 10. Eye examination of the rabbits was performed under anesthesia. The anesthesia was performed under sedation by performing intramuscular injection of xylazine (3 mg/kg, Rompun®; Bayer Korea, Korea) and intramuscular injection of 10 mg/kgtiletamine/zolazepam (Zoletil®, Virbac Laboratories, Carros, France). After adding 1 drop of proparacaine HCl 0.5% (Alcaine®, Alcon Korea Ltd., Seoul, Korea), excess tears and eye drops were removed with Weck-cel® […]. The wet length (mm) of the paper strip was read after 5 minutes.

pI value of the API = format: physicochemical
rabbit DED model [2] = experiment: Tear film break-up time (TBUT), rabbit DED model; format: in vivo
From the text: The rabbit DED model was induced by locally administrating 0.1% benzalkoniumchloride (BAC) drops (Sigma, St. Louis, MO, USA) twice a day (8 a.m. and 4 p.m.). Before the BAC treatment, the control group (baseline, naive) underwent standard dry eye clinical tests such as the Schirmer tear test (STT), TBUT, and corneal staining score (CSS) test. […] The test substance was locally applied bis in die (BID) to both eyes.
TBUT is the time elapsed between the last blink and the first appearance of fluorescein decomposition, and it is an indicator of tear film stability. […] The measurement was repeated three times to obtain an average value.
Tear film instability is an important pathological characteristic of DED and the most common indicator of tear quality.

[3] = Viscosity of eye drops by rotational rheometer; format: physicochemical; settings: shear rate 100 (1/s)
From the text: Based on the above information, sodium hyaluronate was set as the viscosity reagent.

[4] = system: inflammatory cells infiltrated into the stromal layer; experiment: Immune cell counts by H&E staining, EDE rabbit model; format: in vivo; settings: 10 days after the treatment
From the text: The extracted eyes were washed with phosphate-buffered saline (PBS), fixed in the modified Davidson's solution, and embedded in paraffin (Histocore Arcadia, Leica, Wetzlar, Germany). Afterwards, paraffin blocks were sliced into sections of a ˜6 μm thickness, mounted on microscope slides (HistoCore AUTOCUT, Leica, Germany), air dried, and stained with hematoxylin-eosin. The stained tissue slides were imaged, and data were obtained using an optical microscope/digital slide scanner (Axio Scan.Z1, Zeiss, Oberkochen, Germany). Image measurement was performed using ZEN (Zeiss, Germany) and ImageJ (NIH, Bethesda, […], USA) software programs.
The DED inflammatory pathway also includes the infiltration of differentiated (antigen-specific) T cells into the cornea, conjunctiva, and lacrimal gland. To evaluate the anti-inflammatory effect of (PEG)-BHD1028 in the EDE rabbit model, the number of inflammatory cells infiltrated into the stromal layer was measured by H&E staining 10 days after the treatment.

rabbit DED model [5] = experiment: Corneal fluorescein staining (CFS) score, rabbit DED model; format: in vivo; settings: for dynamic slope of the CFS score change: from Day 1 to Day 10
Method: as §1
The subjects were evaluated by corneal staining, and the abnormal findings of the eyelids, cornea, and conjunctiva were recorded. After dropping 1 μL of the 1% fluorescent dye solution and washing with saline solution, and the cornea was observed under a slit-lamp microscope and scored to evaluate the degree of epithelial damage (degree of fluorescent staining).

[6] = rabbit, 0.1% group, Baseline (before BAC treatment)
[7] = rabbit, 0.1% group, Day 0 (EDE), before treatment
[8] = rabbit, 0.2% group, Baseline (before BAC treatment)
[9] = rabbit, 0.2% group, Day 0 (EDE), before treatment
[10] = rabbit, 0.4% group, Baseline (before BAC treatment)
[11] = rabbit, 0.4% group, Day 0 (EDE), before treatment

In the case of “NH2-Tyr-Tyr-Phe-Ala-Tyr-His-Pro-Asn-Ile-Pro-Gly-Leu-Tyr-Tyr-Phe-COOH (H-YYFAYHPNIPGLYYF-OH; also: PEGylated, site not given here (mPEG), acetate salt) [(PEG)-BHD1028]”, the “CD4+IFN-γ+T cell density” value (CD4+IFN-γ+T cell; conjunctiva, 0.001%) is reported as 18.96%, the “CD4+IFN-γ+T cell density” value (CD4+IFN-γ+T cell; conjunctiva, 0.01%) is reported as 15.31% and the “CD4+IFN-γ+T cell density” value (CD4+IFN-γ+T cell; conjunctiva, 0.1%) is reported as 9.91%. The “CD4+IFN-γ+T cell density” value (CD4+IFN-γ+T cell; cornea, 0.001%) was 18.62%, the “CD4+IFN-γ+T cell density” value (CD4+IFN-γ+T cell; cornea, 0.01%) was 16.78% and the “CD4+IFN-γ+T cell density” value (CD4+IFN-γ+T cell; cornea, 0.1%) was 11.66%. For the same substance, the “CD4+IFN-γ+T cell density” value (CD4+IFN-γ+T cell; lacrimal gland, 0.001%) was 18.45%, the “CD4+IFN-γ+T cell density” value (CD4+IFN-γ+T cell; lacrimal gland, 0.01%) was 14.60% and the “CD4+IFN-γ+T cell density” value (CD4+IFN-γ+T cell; lacrimal gland, 0.1%) was 10.70%. The STT-2 (rabbit DED model [1]; rabbit DED, 0.1% BID, Day 5) was 4.67 ± 0.65 mm, the STT-2 (rabbit DED model [1]; rabbit DED, 0.1% BID, Day 10) was 6.50 ± 0.87 mm and the STT-2 (rabbit DED model [1]; rabbit DED, 0.2% BID, Day 5) was 3.33 ± 0.51 mm. For the same substance, the STT-2 (rabbit DED model [1]; rabbit DED, 0.2% BID, Day 10) was 7.50 ± 0.99 mm, the STT-2 (rabbit DED model [1]; rabbit DED, 0.4% BID, Day 5) was 4.33 ± 0.45 mm and the STT-2 (rabbit DED model [1]; rabbit DED, 0.4% BID, Day 10) was 6.67 ± 1.02 mm. It also gave an STT-2 (rabbit DED model [1]; [6]) of 6.67 ± 0.96 mm, an STT-2 (rabbit DED model [1]; [7]) of 3.00 ± 1.22 mm and an STT-2 (rabbit DED model [1]; [8]) of 8.50 ± 1.39 mm. The STT-2 (rabbit DED model [1]; [9]) was 3.33 ± 1.28 mm, the STT-2 (rabbit DED model [1]; [10]) was 9.17 ± 1.23 mm and the STT-2 (rabbit DED model [1]; [11]) was 3.33 ± 1.22 mm. The pI value (pI value of the API) was “approximately 6.6”, the TBUT (rabbit DED model [2]; rabbit DED, 0.1% BID, Day 5) was 10.64 ± 0.99 s and the TBUT (rabbit DED model [2]; rabbit DED, 0.1% BID, Day 10) was 17.88 ± 1.91 s. The TBUT (rabbit DED model [2]; rabbit DED, 0.2% BID, Day 5) was 15.68 ± 1.58 s, the TBUT (rabbit DED model [2]; rabbit DED, 0.2% BID, Day 10) was 17.72 ± 1.74 s and the TBUT (rabbit DED model [2]; rabbit DED, 0.4% BID, Day 5) was 19.88 ± 1.42 s. For the same substance, the TBUT (rabbit DED model [2]; rabbit DED, 0.4% BID, Day 10) was 22.71 ± 1.87 s, the TBUT (rabbit DED model [2]; [6]) was 49.67 ± 3.17 s and the TBUT (rabbit DED model [2]; [7]) was 8.50 ± 1.0 s. For the same substance, the TBUT (rabbit DED model [2]; [8]) was 49.83 ± 2.10 s, the TBUT (rabbit DED model [2]; [9]) was 8.89 ± 1.34 s and the TBUT (rabbit DED model [2]; [10]) was 53.00 ± 2.29 s. The TBUT (rabbit DED model [2]; [11]) was 8.22 ± 1.16 s, the “viscosity, Test result” value ([3]; concentration 0.5%) was 0.009 Pa · S and the “viscosity, Test result” value ([3]; concentration 1.5%) was 0.010 Pa · S. The “viscosity, Test result” value ([3]; concentration 4.5%) was 0.014 Pa · S, the “immune cell counts in the corneal stroma” value ([4]; 0.1%) was 399.39±22.22 and the “number of immune cells infiltrated into the conjunctiva” value (shortened to “number”) ([4]; 0.1%) was 624.94±29.29. For the same substance, the “immune cell counts in the corneal stroma” value ([4]; 0.2%) was 349.89±17.18, the “number” value ([4]; 0.2%) was 472.41±39.06 and the “immune cell counts in the corneal stroma” value ([4]; 0.4%) was 305.06±13.88. For the same substance, the “number” value ([4]; 0.4%) was 427.22±29.29, the CFS (rabbit DED model [5]; rabbit DED, 0.1% BID, Day 5) was 7.17 ± 1.21 score and the CFS (rabbit DED model [5]; rabbit DED, 0.1% BID, Day 10) was 6.67 ± 0.56 score. It also gave a CFS (rabbit DED model [5]; rabbit DED, 0.2% BID, Day 5) of 6.83 ± 0.64 score, a CFS (rabbit DED model [5]; rabbit DED, 0.2% BID, Day 10) of 6.17 ± 0.55 score and a CFS (rabbit DED model [5]; rabbit DED, 0.4% BID, Day 5) of 5.67 ± 0.38 score. It also gave a CFS (rabbit DED model [5]; rabbit DED, 0.4% BID, Day 10) of 3.83 ± 0.64 score, a CFS (rabbit DED model [5]; [6]) of 0.00 ± 0.00 score and a CFS (rabbit DED model [5]; [7]) of 6.67 ± 0.30 score. For the same substance, the CFS (rabbit DED model [5]; [8]) was 0.00 ± 0.00 score, the CFS (rabbit DED model [5]; [9]) was 9.17 ± 0.37 score and the “dynamic slope of the CFS score change” value (rabbit DED model [5]; rabbit, 0.2%) was −0.42. The CFS (rabbit DED model [5]; [10]) was 0.00 ± 0.00 score, the CFS (rabbit DED model [5]; [11]) was 8.00 ± 0.62 score and the “mean CFS score lower than that of the 0.05% cyclosporine treated animals” value (rabbit DED model [5]; rabbit, 0.4%, Day 10, p=0.0558) was “approximately 46%”. The “dynamic slope of the CFS score change” value (rabbit DED model [5]; rabbit, 0.4%) was −0.33.
